Measurements from ChEMBL document CHEMBL6127086, “Recent advances in dual PROTACs degrader strategies for disease treatment” (Eur J Med Chem, 2024).
Starred links: 1 amine or outer side, 2 acyl side, 3 side chain; linkers in the order of their positions; H or OH if unused. Non-standard residues stand in square brackets, D forms with d. Residues, ends and D or L forms follow the SMILES beside them. *: point of attachment. X1 = O=C([C@H](Cc1ccc(C(F)(F)P(=O)(O)O)cc1)O[*:1])[*:2]; NHCH2(1,3-C6H4)CH2CO = O=C(Cc1cccc(CN[*:1])c1)[*:2]; Phenylacetyl(4-OH,3-OMe) = COc1cc(CC(=O)*)ccc1O; Benzoyl(3-Br,4-Me) = Cc1ccc(C(=O)*)cc1Br; X2 = Cc1ncsc1-c1ccc([C@@H](C)N*)cc1; Hyp = O=C(O)[C@@H]1C[C@@H](O)CN1; Tle = CC(C)(C)[C@H](N)C(=O)O

Tests used:
[1] = Antiproliferative activity against human MINO cells assessed as reduction in cell viability incubated fro 72 hrs by Celltiter-glo reagent based analysis; format: functional
[2] = target: T1, Protein cereblon/Bromodomain-containing protein 4 (Homo sapiens, UniProt O60885+Q96SW2); assay: PROTAC activity at CRBN/BRD4 (unknown origin) expressed in HEK293 cells assessed as induction of BRD4 degradation measured after 4 hrs by Western blot analysis; format: cell-based
RKO = assay: Antiproliferative activity against human RKO cells assessed as reduction in cell viability by Celltiter-glo reagent based analysis; format: functional
[3] = target: T2, von Hippel-Lindau disease tumor suppressor/Bromodomain-containing protein 2 (Homo sapiens, UniProt P25440+P40337); assay: PROTAC activity at human VHL/BRD2 in human HeLa cells assessed as degradation of BRD2 incubated for 16 hrs by Western blot analysis; format: cell-based
[4] = target: T1, Protein cereblon/Bromodomain-containing protein 4; assay: PROTAC activity at CRBN/BRD4 (unknown origin) expressed in HEK293 cells assessed as induction of BRD4 degradation incubated for 6 hrs by Western blot analysis; format: cell-based
[5] = target: von Hippel-Lindau disease tumor suppressor/WD repeat-containing protein 5 (Homo sapiens, UniProt P61964+P40337); assay: PROTAC activity at VHL/WDR5 in human MIA PaCa-2 cells assessed as degradation of WDR5 protein incubated for 18 hrs by Western blotting analysis; format: cell-based
Cereblon/Ikaros [6] = target: T3, Cereblon/Ikaros (Homo sapiens, UniProt Q96SW2+Q13422); assay: PROTAC activity at CRBN/IKZF1 in human MV4-11 cells assessed as degradation of IKZF1 protein incubated for 18 hrs by Western blotting analysis; format: cell-based
Cereblon/Ikaros [7] = target: T3, Cereblon/Ikaros; assay: PROTAC activity at CRBN/IKZF1 in human MV4-11 cells assessed as maximum degradation of protein at 0.1 uM incubated for 18 hrs by Western blotting analysis relative to control; format: cell-based
CWR22R = assay: Antiproliferative activity against human 22Rv1 cells assessed as reduction in cell viability incubated for 72 hrs by Celltiter- Glo assay; format: functional, cell-based; conditions: 22Rv1, 72 h
VCaP = assay: Antiproliferative activity against human VCaP cells assessed as reduction in cell viability incubated for 72 hrs by Celltiter- Glo assay; format: functional, cell-based
[8] = target: T2, von Hippel-Lindau disease tumor suppressor/Bromodomain-containing protein 2; assay: PROTAC activity at VHL/BRD2 in human 22Rv1 cells assessed as degradation of BRD2 incubated for 16 hrs by Western blot analysis; format: cell-based
[9] = Antiproliferative activity against human LNCaP-95 cells assessed as reduction in cell viability incubated for 72 hrs by Celltiter- Glo assay; format: functional, cell-based; conditions: LNCaP-95, 72 h
[10] = target: von Hippel-Lindau disease tumor suppressor/Bcl-2-like protein 1 (Homo sapiens, UniProt Q07817+P40337); assay: PROTAC activity at VHL/BCL-XL in human Jurkat cells assessed as induction of BCL-XL degradation incubated for 16 hrs by immunoblot analysis; format: cell-based
[11] = target: Protein cereblon/Cyclin-dependent kinase 6 (Homo sapiens, UniProt Q00534+Q96SW2); assay: Protac activity at CRBN/CDK6 in human MDA-MB-231 cells assessed as induction of CDK6 degradation measured after 18 hrs by Western blot analysis; format: cell-based
[12] = target: Protein cereblon/Cyclin-dependent kinase 4 (Homo sapiens, UniProt P11802+Q96SW2); assay: Protac activity at CRBN/CDK4 in human MDA-MB-231 cells assessed as induction of CDK4 degradation measured after 6 hrs by Western blot analysis; format: cell-based
OVCAR-8 = assay: Antiproliferative activity against human OVCAR-8 cells assessed as inhibition of growth rate measured for 72 hrs; format: functional
[13] = target: Protein cereblon/CREB-binding protein (Homo sapiens) (UniProt Q92793+Q96SW2); assay: PROTAC activity at CRBN/CBP in human MV4-11 cells assessed as induction of protein degradation by measuring maximal degradation at 250 nM incubated for 24 hrs by Western blotting analysis relative to control; format: cell-based
[14] = target: von Hippel-Lindau disease tumor suppressor/Bromodomain-containing protein 4 (Homo sapiens) (UniProt O60885+P40337); assay: PROTAC activity at human VHL/BRD4 in human HT-1080 cells assessed as maximum degradation of BRD4 at 0.2 uM incubated for 24 hrs by Western blot analysis relative to control; format: cell-based
[15] = target: Protein cereblon/Bromodomain-containing protein 2 (Homo sapiens, UniProt P25440+Q96SW2); assay: PROTAC activity at CRBN/BRD2 in human MV4-11 cells assessed as degradation of BRD2 protein incubated for 4 hrs by Western blotting assay; format: cell-based
[16] = target: Protein cereblon/Bromodomain-containing protein 3 (Homo sapiens, UniProt Q15059+Q96SW2); assay: PROTAC activity at CRBN/BRD3 in human MV4-11 cells assessed as degradation of BRD3 protein incubated for 4 hrs by Western blotting assay; format: cell-based
[17] = target: T4, Protein cereblon/Tyrosine-protein phosphatase non-receptor type 1 (Homo sapiens, UniProt P18031+Q96SW2); assay: PROTAC activity at PTP1B/CRBN human HepG2 cells assessed as protein degradation incubated for 16 hrs by Western blot analysis; format: cell-based
[18] = target: T4, Protein cereblon/Tyrosine-protein phosphatase non-receptor type 1; assay: PROTAC activity at PTP1B/CRBN human HepG2 cells assessed as protein degradation incubated for 24 hrs by Western blot analysis; format: cell-based

Cc1sc2c(c1C)C(c1ccc(Cl)cc1)=N[C@@H](CC(=O)Nc1ccc(OCCOCCOCCOCCNc3cccc4c3C(=O)N(C3CCC(=O)NC3=O)C4=O)cc1)c1nnc(C)n1-2 (some centres not stated)
IC50 [1]: 14.5 nM

Cc1ncsc1-c1ccc([C@H](C)NC(=O)[C@@H]2C[C@@H](O)CN2C(=O)[C@@H](NC(=O)OCC(C)(COCCOCCOCCNC(=O)C[C@@H]2N=C(c3ccc(Cl)cc3)c3c(sc(C)c3C)-n3c(C)nnc32)COCCOCCOCCNc2cc3c(cc2F)C(=O)N(C2CCC(=O)NC2=O)C3=O)C(C)(C)C)cc1 (some centres not stated)
DC50 [2]: 2.3 nM | EC50 (RKO): 111 nM | DC50 [3]: 15 nM | DC50 [4]: 2.1 nM

CN1CCN(c2ccc(-c3cccc(CN4CCN(CCNC(=O)CCCCCCCNc5cccc6c5C(=O)N(C5CCC(=O)NC5=O)C6=O)CC4)c3)cc2NC(=O)c2c[nH]c(=O)cc2C(F)(F)F)CC1 (configuration not stated)
DC50 [5]: 42 nM | DC50 (Cereblon/Ikaros [6]): 500 nM | Emax (Cereblon/Ikaros [7]): 90%

Cc1ncsc1-c1ccc([C@H](C)NC(=O)[C@@H]2C[C@@H](O)CN2C(=O)[C@@H](NC(=O)COCCCOCCNC(=O)C[C@@H]2N=C(c3ccc(Cl)cc3)c3c(sc(C)c3C)-n3c(C)nnc32)C(C)(C)C)cc1
IC50 (CWR22R): < 1 nM | IC50 (VCaP): < 1 nM | DC50 [8]: < 5 nM | IC50 [9]: < 1 nM

Cc1ncsc1-c1ccc([C@H](C)NC(=O)[C@@H]2C[C@@H](O)CN2C(=O)[C@@H](NC(=O)CN2CCN(CC(=O)N3CCN(C[C@]4(C)CCC(c5ccc(Cl)cc5)=C(CN5CCN(c6ccc(C(=O)NS(=O)(=O)c7ccc(N[C@H](CCN8C[C@H]9C[C@@H]8CO9)CSc8ccccc8)c(S(=O)(=O)C(F)(F)F)c7)cc6)CC5)C4)CC3)CC2)C(C)(C)C)cc1
DC50 [10]: 0.6 nM

CN(C)C(=O)c1cc2cnc(Nc3ccc(N4CCN(Cc5cn(CCCCCC(=O)Nc6cccc7c6C(=O)N(C6CCC(=O)NC6=O)C7=O)nn5)CC4)cn3)nc2n1C1CCCC1 (configuration not stated)
DC50 [11]: 300 nM | DC50 [12]: 97 nM

Cc1cc(S(=O)(=O)NCCOCCOCCOCCOCCNc2cccc3c2C(=O)N(C2CCC(=O)NC2=O)C3=O)ccc1Nc1ncc(Br)c(Nc2cccc(F)c2C(N)=O)n1 (configuration not stated)
GR50 (OVCAR-8): 33.1 nM

CNC(=O)N1CCc2c(c(N3CCCc4cc(-c5cnn(C)c5)c(C(F)F)cc43)nn2C2CCN(C(=O)CCOCCOCCOCCOCCNc3ccc4c(c3)C(=O)N(C3CCC(=O)NC3=O)C4=O)CC2)C1 (configuration not stated)
Emax [13]: > 100%

Cc1ncsc1-c1ccc(NC(=O)[C@@H]2C[C@@H](O)CN2C(=O)[C@@H](NC(=O)COCCOCCOc2cc(OCC(=O)OC(C)(C)C)ccc2NC(=O)C[C@@H]2N=C(c3ccc(Cl)cc3)c3c(sc(C)c3C)-n3c(C)nnc32)C(C)(C)C)cc1
Emax [14]: 93%

Cc1ncsc1-c1ccc(CNC(=O)[C@@H]2C[C@@H](O)CN2C(=O)[C@@H](NC(=O)OCC(C)(COCCOCCOCCNC(=O)C[C@@H]2N=C(c3ccc(Cl)cc3)c3c(sc(C)c3C)-n3c(C)nnc32)COCCOCCOCCNC(=O)C[C@@H]2N=C(c3ccc(Cl)cc3)c3c(sc(C)c3C)-n3c(C)nnc32)C(C)(C)C)cc1
DC50 [15]: 1.1 nM | DC50 [16]: 3.3 nM

COc1cc(CC(=O)N[C@@H](Cc2ccccc2)C(=O)O[C@@H](Cc2ccc(C(F)(F)P(=O)(O)O)cc2)C(=O)N[C@@H](CCCCNC(=O)c2ccc(C)c(Br)c2)C(=O)NCc2cccc(CC(=O)N[C@H](C(=O)N3C[C@H](O)C[C@H]3C(=O)N[C@H](C)c3ccc(-c4scnc4C)cc3)C(C)(C)C)c2)ccc1O ({Phenylacetyl(4-OH,3-OMe)}-F[X1]K(Benzoyl(3-Br,4-Me))[NHCH2(1,3-C6H4)CH2CO][Tle][Hyp]-X2)
DC50 [17]: 14.1 nM | DC50 [18]: 8.7 nM
